According to the supplement of paper PMC10307832:

How the values were obtained:
Experiment in all cases: relative viability (nuclei count vs DMSO), 5 days (fraction); higher = more cells survive
Vemurafenib + Bortezomib = compound: CCCS(=O)(=O)Nc1ccc(F)c(C(=O)c2c[nH]c3ncc(-c4ccc(Cl)cc4)cc23)c1F [Vemurafenib] + CC(C)C[C@H](NC(=O)[C@H](Cc1ccccc1)NC(=O)c1cnccn1)B(O)O [Bortezomib] (partner 0.002 µM)
How it was run: (§1)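 Cells from lung cancer lines were seeded into 1536-well plates and, one day later, dosed by pin tool. Treatments were either a single drug or a fixed dose of an anchor drug with five library-drug doses (not always all listed) in √10 steps. After 5 days, nuclei were stained in a one-step fixation (final 0.05% Triton X-100, 1% formaldehyde, 1 ug/ml Hoechst) and counted on 4× images, and relative viability is the treated-to-vehicle nuclei ratio, as the median of duplicate plates.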

Vemurafenib + Tozasertib = compound: CCCS(=O)(=O)Nc1ccc(F)c(C(=O)c2c[nH]c3ncc(-c4ccc(Cl)cc4)cc23)c1F [Vemurafenib] + Cc1cc(Nc2cc(N3CCN(C)CC3)nc(Sc3ccc(NC(=O)C4CC4)cc3)n2)n[nH]1 [Tozasertib] (partner 0.1 µM)
How it was run: as §1

Alpelisib + Bortezomib = compound: Cc1nc(NC(=O)N2CCC[C@H]2C(N)=O)sc1-c1ccnc(C(C)(C)C(F)(F)F)c1 [Alpelisib] + CC(C)C[C@H](NC(=O)[C@H](Cc1ccccc1)NC(=O)c1cnccn1)B(O)O [Bortezomib] (partner 0.002 µM)
How it was run: as §1

OSI-027 + Tozasertib = compound: COc1cccc2cc(-c3nc([C@H]4CC[C@H](C(=O)O)CC4)n4ncnc(N)c34)[nH]c12 [OSI-027] + Cc1cc(Nc2cc(N3CCN(C)CC3)nc(Sc3ccc(NC(=O)C4CC4)cc3)n2)n[nH]1 [Tozasertib] (partner 0.1 µM)
How it was run: as §1

Cell Line	relative viability (Vemurafenib + Bortezomib; first compound 0.03162 µM)	relative viability (Vemurafenib + Bortezomib; first compound 0.1 µM)	relative viability (Vemurafenib + Bortezomib; first compound 0.3162 µM)	relative viability (Vemurafenib + Bortezomib; first compound 1 µM)	relative viability (Vemurafenib + Tozasertib; first compound 0.03162 µM)	relative viability (Vemurafenib + Tozasertib; first compound 0.1 µM)	relative viability (Vemurafenib + Tozasertib; first compound 0.3162 µM)	relative viability (Vemurafenib + Tozasertib; first compound 1 µM)	relative viability (Alpelisib + Bortezomib; first compound 0.04 µM)	relative viability (Alpelisib + Bortezomib; first compound 0.1265 µM)	relative viability (Alpelisib + Bortezomib; first compound 0.4 µM)	relative viability (Alpelisib + Bortezomib; first compound 1.265 µM)	relative viability (Alpelisib + Bortezomib; first compound 4 µM)	relative viability (OSI-027 + Tozasertib; first compound 0.01 µM)	relative viability (OSI-027 + Tozasertib; first compound 0.03162 µM)	relative viability (OSI-027 + Tozasertib; first compound 0.1 µM)	relative viability (OSI-027 + Tozasertib; first compound 0.3162 µM)	relative viability (OSI-027 + Tozasertib; first compound 1 µM)
201T	1.07	0.998	1.15	1.17	0.95	0.915	0.925	0.975	1.1	1.08	1.18	1.08	1.09	1	0.96	0.946	0.914	0.736
A-427	0.885	0.998	0.962	1.03	0.194	0.203	0.238	0.227	0.889	0.843	0.978	0.849	0.893	0.231	0.201	0.159	0.219	0.192
ABC-1	0.268	0.302	0.267	0.287	0.151	0.174	0.181	0.202	0.312	0.295	0.268	0.363	0.266	0.197	0.179	0.203	0.167	0.206
BEN	0.768	0.933	0.351	0.554	0.515	0.52		0.426	0.793	0.733	0.807	0.761	0.697	0.566	0.625	0.469	0.529	0.383
CAL-12T	0.835			0.974	0.31	0.289	0.346	0.26	1.08		0.952		0.718	0.377	0.287	0.317	0.294	0.212
COR-L23	0.925	0.941	0.832	0.912	0.14	0.202	0.181	0.143	0.945	0.976	1.13	0.798	0.802	0.18	0.185	0.237	0.287	0.19
COR-L 105	0.772		0.485	0.759	0.394			0.433	0.92	0.86	1.33	0.735	0.782	0.335	0.336	0.374	0.371	0.411
Calu-6	0.897	0.939	0.96	0.832					0.952	0.827	1.1	0.852	1.03					
ChaGo-K-1	0.934	0.725		1.08	0.22	0.195	0.257	0.204	0.921		1.07	0.839	0.791	0.208	0.222	0.203	0.382	0.172
EBC-1	0.453	0.553	0.622	0.741					0.574	0.559	0.584	0.428	0.423					
